This passage reports IC50 and Kd results from ChEMBL document CHEMBL1130661, “Design and synthesis of SH3 domain binding ligands: modifications of the consensus sequence XPpXP” (Bioorg Med Chem Lett, 1998).

The nature of the experiment: Compound was tested for the […] domain binding using BIA core binding assay.

What is called IC50 is the concentration at which inhibition is half-maximal. The Kd is the constant that tells how readily two partners part at equilibrium. Read a low Kd as tighter binding.

As for `CC(=O)N1CCC[C@@H]1C(=O)N[C@@H](CCCN=C(N)N)C(=O)N1CCC[C@@H]1C(=O)N[C@@H](CC(C)C)C(=O)N1CCC[C@]12CC[C@H]1SC[C@@H](C(=O)N[C@@H](C)C(=O)N3CCC[C@H]3C(=O)NCC(=O)O)N1C2=O`, the IC50 came to 46 µM. As for `CC(C)C[C@H](NC(=O)[C@H](CO)NC(=O)[C@@H](N)C(C)C)C(=O)N[C@@H](C)C(=O)N[C@@H](CCCN=C(N)N)C(=O)N[C@@H](CCCN=C(N)N)C(=O)N1CCC[C@H]1C(=O)N[C@@H](CC(C)C)C(=O)N1CCC[C@H]1C(=O)N1CCC[C@H]1C(=O)N[C@@H](CC(C)C)C(=O)N1CCC[C@H]1C(=O)O`, binding was put at a Kd of 1.6 µM. That is a single-digit micromolar value. For the compound `CC(=O)N1CCC[C@@H]1C(=O)N[C@@H](CCCN=C(N)N)C(=O)N1CCC[C@@H]1C(=O)N[C@@H](CC(C)C)C(=O)N1CCC[C@@]12CC[C@@H]1SC[C@H](C(=O)N[C@@H](C)C(=O)N3CCC[C@H]3C(=O)NCC(=O)O)N1C2=O`, the IC50 came out at 75 µM.
